Source: US8957215B2, “Heteroaryl substituted benzothiazoles” (Navidea Biopharmaceuticals, Inc., priority 2006, dated 2015)
Like-named read-outs stand apart in the source and are kept apart here. Values belong to the molecule of their own block, whether it stands above or below them.

Tests used:
[1] = In vivo rat brain entry study; settings: i.v.
Procedure: Brain exposure after i.v administration was determined in rat brains using cassette dosing. Four different compounds were dosed followed by plasma and brain sampling at 2 and 30 minutes after the dosing. 2 to 30 min brain concentration ratios, and percentage of total of injected dose after 2 mins found in brain, were calculated. The compound concentrations were determined by analysis of protein precipitated plasma samples by reversed-phase liquid chromatography coupled to a electrospray tandem mass spectrometer.
FIG. 4. Brain and plasma concentration at 2 and 30 minutes after i.v. administration in rat of PIB (upper graph “A”), and 2-[6-(methylamino)pyridin-3-yl]-1,3-benzothiazol-6-ol (lower graph “B”), a compound of the present intervention (example 27).

synthetic Aβ 1-40 [2] = biological target: T1, synthetic Aβ 1-40 (Homo sapiens, UniProt P05067); assay: Competition binding assay with [^3H]PIB as radioligand
T1 construct: using synthetic Aβ 1-40 in 2.7 nM of [^3H]PIB
T1 sequence (P05067 672-711 limits assumed): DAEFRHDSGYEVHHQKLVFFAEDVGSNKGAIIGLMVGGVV
Procedure: (§1) Competition binding was performed in 384-well FB filter plates using synthetic Aβ 1-40 in 2.7 nM of [^3H]PIB (or another ^3H-labeled radioligand when so mentioned) in phosphate buffer at pH 7.5, by adding various concentrations of non-radioactive compounds originally dissolved in DMSO. The binding mixture was incubated for 30 min at room temperature, followed by vacuum filtration, and subsequentially by washing twice with 1% Triton-X100. Scintillation fluid was thereafter added to the collected Aβ 1-40 on the filter plate, and the activity of the bound remaining radioligand ([^3H]PIB or another ^3H-labeled radioligand) was measured using 1450 Microbeta from PerkinElmer.
Specific binding was determined according to the competition binding assay described herein. The determined IC50's in the competition binding assays (using [^3H]PIB as radioligand) of 5 compounds of the present invention are shown in Table 1. Results (activity of remaining [^3H]PIB versus increasing concentration of non-labeled compounds) from typical competition assay experiments are exemplified in FIG. 1. In a similar way, competition studies with ^3H-labeled heteroaryl substituted benzthiazole derivates of the present invention were also conducted. Such results, from a typical competition study, are examplified in FIG. 2. PIB and 2-[6-(methylamino)pyridin-3-yl]-1,3-benzothiazol-6-ol (a novel compound of the present invention) both displaced [N-methyl-^3H3]-2-(6-methylamino-pyridin-3-yl)-benzothiazol-6-ol (a ^3H-labeled compound of the present invention). The binding of [N-methyl-^3H3]-2-(6-methylamino-pyridin-3-yl)-benzothiazol-6-ol (example 32) to Aβ1-40 fibrils, was reversible as evident from the dissociation experiment exemplified in FIG. 3.

[3] = during the first 5-10 min, reference radioligands; cited from earlier work
[4] = Brain PET study in monkey; assay type: in vivo
Procedure: The monkey PET study aimed to assess and compare a [^11C]-labelled compound of this invention to [^11C]PIB regarding measures of brain availability, non-specific binding in the brain, whole body biodistribution, elimination and exploration of regional differences in uptake. Five brain PET measurements were performed in three monkeys under anesthesia. In each PET-measurement a sterile physiological phosphate buffer (pH=7.4) solution containing 52-55 MBq of either a [^11C]-labelled compound of this invention, or [^11C]PIB, was injected as a bolus into a sural vein over a period of 5 seconds with simultaneous start of PET-data acquisition. Radioactivity in brain was measured continuously for 93 minutes. Only [^11C]PIB measurement was performed in the first monkey. In the other two monkeys a [^11C]-labelled compound of the present invention was measured first and [^11C]PIB was administered in a subsequent measurement. The time between radioligand injections was approx. 2 h. PET measurements were evaluated with respect to the time-activity curve for the whole brain expressed as percent injected radioactivity dose.

[5] = Whole body PET measurement in monkey; assay type: in vivo
Procedure: Whole body PET-measurement was performed in one monkey. A sterile physiological phosphate buffer (pH=7.4) solution containing 51 MBq of [^11C]PIB in the first measurement, and 57 MBq of a [^11C]-labelled compound of the present invention in the second measurement, was injected as a bolus into a sural vein over a period of 5 seconds with simultaneous start of PET-data acquisition that lasted for 87 min. The time between radioligand injections was 2 h. PET measurements were assessed visually by creating planar maximum intensity projection images of decay uncorrected data and also converting decay corrected images to ones containing parts-per-million (ppm) values of the total injected radioactivity.

[6] = biological target: T2, human synthetic Aβ 1-40 fibrils (Homo sapiens, UniProt P05067); assay: Dissociation experiment; assay type: binding; settings: FIG. 3
T2 construct: 2 μM human synthetic Aβ 1-40 fibrils in phosphate buffer pH 7.5
T2 sequence (P05067 672-711 limits assumed): as above
Procedure: Dissociation experiments were performed in 96-well polypropylene deep well plates. 2 μM human synthetic Aβ 1-40 fibrils in phosphate buffer pH 7.5, or buffer alone as control, was incubated with 9 nM of a ^3H-labeled radioligand of the present invention for 4 h at room temperature. Dissociation was started at different time points, by the addition of an equal volume of a non-labeled compound of the present invention, or a reference compound (10 μM), in 4% DMSO in phosphate buffer at pH 7.5. The radioactivity still bound to the Aβ 1-40 fibrils at the end of the incubation was detected on FB filters after filtration in a Brandel apparatus using a wash buffer containing 0.1% Triton-X100.
FIG. 3. Example of a dissociation experiment: Dissociation of [N-methyl-^3H3]-2-(6-methylamino-pyridin-3-yl)-benzothiazol-6-ol (example 32) from Aβ1-40 fibrils over time.

[7] = system: amyloid plaques in post-mortem human AD brains; assay: Binding to amyloid plaques in post-mortem human AD brain sections
Procedure: (§2) Slide-mounted brain sections (10 μm) from APP/PS1 transgenic mice were collected at the level of the lateral septum (bregma+0.98 mm; see Paxinos and Franklin, 2001). Human cortical sections (7 μm) from two AD patients and 1 control subject were obtained from a Dutch tissue bank.
(§3) Sections were preincubated for 30 minutes at room temperature in 50 mM Tris HCl (pH 7.4) in the presence or absence of 1 μM PIB. Sections were transferred to buffer containing tritium-labeled compound (1 nM) with or without PIB (1 μM) and incubated for 30 minutes at room temperature. Incubation was terminated by 3 consecutive 10 minute rinses in buffer (1° C.) followed by a rapid rinse in distilled water (1° C.). Sections were air dried in front of a fan. Dried sections and plastic tritium standards (Amersham microscales-^3H) were apposed to phosphoimage plates (Fuji) in a cassette and exposed overnight. The following morning, the image plates were processed with a Fuji phosphoimager (BAS 2500) using BAS Reader software. The resulting image was converted to TIF format using Aida software, optimized with Adobe Photoshop (v 8.0) and quantified using Image-J (NIH). Data were statistically analyzed using Excel.

[8] = system: amyloid plaques in APP/PS1 transgenic mice brain sections; assay: Binding to amyloid plaques in APP/PS1 transgenic mouse brain sections; settings: 1 nM tritium-labeled compound
Procedure: as §2, §3

[9] = system: amyloid plaques in APP/PS1 mouse brain; assay type: in vivo
Procedure: Naïve, awake mice were restrained and intravenously infused via the tail vein with either a tritium labeled compound of the present invention, or a tritium labeled reference compound via the tail vein. In one type of experiment, the animals were rapidly anesthetized with isofluorane and decapitated twenty minutes after compound administration (1 mCi). In another type of experiment, mice were given 1 mCi of a compound and were anesthetized and decapitated at a timepoint of 20, 40 or 80 minutes after administration. Brains were removed and frozen with powdered dry ice. Brains were sectioned (10 μm) in the coronal plane at the level of the striatum with a cryostat, thaw-mounted onto superfrost microscope slides and air-dried.
Methods designed to optimize the imaging of bound ligand after in vivo administration were thereafter employed. To selectively reduce unbound radioactivity levels, one-half of the sections were rinsed (3×10 minutes) in cold (1° C.) Tris buffer (50 mM, pH7.4) followed by a rapid rinse in cold (1° C.) deionized water. Sections were then air dried in front of a fan. Rinsed as well as unrinsed sections and tritium standards were exposed to phosphoimage plates (Fuji). Phosphoimage plates were processed with a Fujifilm BAS-2500 phosphoimager using BAS Reader software.

synthetic Aβ 1-40 [10] = biological target: T1, synthetic Aβ 1-40; assay: Competition binding assay with [N-methyl-^3H3]-2-(6-methylamino-pyridin-3-yl)-benzothiazol-6-ol as radioligand; settings: ^3H-labeled example 32 as radioligand, FIG. 2
Procedure: as §1
Specific binding was determined according to the competition binding assay described herein. The determined IC50's in the competition binding assays (using [^3H]PIB as radioligand) of 5 compounds of the present invention are shown in Table 1. Results (activity of remaining [^3H]PIB versus increasing concentration of non-labeled compounds) from typical competition assay experiments are exemplified in FIG. 1. In a similar way, competition studies with ^3H-labeled heteroaryl substituted benzthiazole derivates of the present invention were also conducted. Such results, from a typical competition study, are examplified in FIG. 2. […]

2 minute to 30 minute brain concentration ratio [1]: > 15
brain uptake value ([1]; 2 min time point): 1 % of the injected dose
Compound: CNc1ccc(-c2nc3ccc(O)cc3s2)cn1 [Example 27, 2-[6-(Methylamino)pyridin-3-yl]-1,3-benzothiazol-6-ol]

IC50 (synthetic Aβ 1-40 [2]): 186 nM
Compound: CC(=O)Nc1ccc2nc(-c3ccc(N4CCN(C)CC4)nc3)sc2c1 [Example 15, N-{2-[6-(4-Methylpiperazin-1-yl)pyridin-3-yl]-1,3-benzothiazol-6-yl}acetamide]

displacement of [N-methyl-^3H3]-2-(6-methylamino-pyridin-3-yl)-benzothiazol-6-ol (synthetic Aβ 1-40 [10]): displaced
Compound: CNc1ccc(-c2nc3ccc(O)cc3s2)cc1 [PIB]

IC50 (synthetic Aβ 1-40 [2]): 58 nM
Compound: CNc1ccc(-c2nc3ccc(OC)cc3s2)cn1 [Example 25, 5-(6-Methoxy-1,3-benzothiazol-2-yl)-N-methylpyridin-2-amine]

The next lines start with the molecule.

Compound: CN1CCN(c2ccc(-c3nc4ccc(O)cc4s3)cn2)CC1 [Example 6, 2-[6-(4-Methylpiperazin-1-yl)pyridin-3-yl]-1,3-benzothiazol-6-ol Acetate]
IC50 (synthetic Aβ 1-40 [2]): 176 nM

Compound: CCN1CCC[C@H]1CNC(=O)c1c(O)c(Cl)cc(Cl)c1O[11CH3] (racemic) [[^11C]raclopride]
fraction of the total injected radioactivity present in the brain [3]: 1-2%

Compound: [11CH3]Nc1ccc(-c2nc3ccc(O)cc3s2)cn1 [^11C-Example 1, [N-Methyl-^11C]-2-(6-Methylamino-pyridin-3-yl)-benzothiazol-6-ol]
brain concentration after the peak ([4]; monkey): declined rapidly
unspecific binding as compared to [^11C]PIB ([4]; monkey brain, time points of relevance for PET-detection): significantly lower
brain exposure ([4]; monkey, FIG. 12): 1-3 % of total injected radioactivity
time of peak brain uptake ([4]; monkey, after injection): first minute
elimination as compared to [^11C]PIB [5]: faster elimination
elimination routes [5]: urinary excretion and hepatobiliary secretion

Compound: [11CH3]Nc1ccc(-c2nc3ccc(O)cc3s2)cc1 [[^11C]PIB, reference compound]
elimination routes [5]: urinary excretion and hepatobiliary secretion

Compound: COc1ccc(-c2nc3ccc(C(N)=O)cc3s2)cn1 [Example 9, 2-(6-Methoxypyridin-3-yl)-1,3-benzothiazole-6-carboxamide]
IC50 (synthetic Aβ 1-40 [2]): 170 nM

Compound: [3H]C([3H])([3H])Nc1ccc(-c2nc3ccc(O)cc3s2)cn1 [Example 32, [N-Methyl-^3H3]-2-(6-Methylamino-pyridin-3-yl)-benzothiazol-6-ol]
reversibility of binding to Aβ1-40 fibrils [6]: reversible
levels of nonspecific binding compared to [^3H]PIB ([7]; human cortical sections): substantially reduced
labeling of dense core plaques ([7]; human cortical sections, 1 nM tritium-labeled compound): labeled dense core plaques
specific binding levels greater than binding observed with [^3H]PIB ([7]; superficial gray layers of human cortex): approximately 40%
labeling of dense core plaques [8]: labeled dense core plaques
cortical plaque labeling in rinsed tissue ([9]; 20 minutes after administration): highest
cortical plaque labeling in rinsed tissue ([9]; 80 minutes after administration): barely detectable
labeling of cortical structures after in vivo administration ([9]; APP/PS1 mice, decapitation 20 minutes after administration): labeled cortical structures
effect of in vitro rinse on levels in corpus callosum ([9]; corpus callosum (white matter)): dramatically reduced
reduction of nonspecific binding by in vitro rinse ([9]; striatum (gray matter)): 78.5%
